From US10800791B2, “Triazole ACC inhibitors and uses thereof” (Gilead Apollo, LLC, priority 2015, dated 2020) come the findings set out here.

Structures are written as SMILES. Converted amounts (≈) assume the structure as drawn. Like-named read-outs stand apart in the source and are kept apart here.

In one test the target is human (hACC2) (Homo sapiens, UniProt O00763). In words: In vitro ACC inhibition assay (ADP-Glo), hACC2. Format: biochemical. To be noted: 5 nM ACC2, 20 μM ATP, 20 μM acetyl-CoA. The protocol:
The detailed procedure is as follows. […] 10 μL ADP glo reagent was added. […] 20 μL kinase detection reagent was added.
In general terms: In ADP-Glo the light output rises with the ADP produced.

A further test concerns C. albicans. In words: Antifungal Activity Assay (broth microtiter MIC), C. albicans. The class given is cell-based, Candida albicans. The conditions noted are these: Candida albicans, ATCC90028, 48 h. In a few lines: (§1)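 MICs were scored by eye at 48 h relative to the growth control. Plates followed CLSI M27-A3, with Candida suspensions in RPMI 1640+MOPS giving a final 2.5×10^3 CFU/mL; the colonies came from Sabouraud agar grown overnight at 35 °C.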

The next test deals with C. krusei. Description: Antifungal Activity Assay (broth microtiter MIC), C. krusei. Format: cell-based, Candida krusei. The conditions noted are these: Pichia kudriavzevii, ATCC6258, 48 h. In a few lines:
as §1

The test system of the next test is C. parapsilosis. Description: Antifungal Activity Assay (broth microtiter MIC), C. parapsilosis. The class given is cell-based, Candida parapsilosis. The conditions noted are these: Lodderomyces parapsilosis, ATCC22019, 48 h. In a few lines:
as §1

A further test addresses fungal (fACC2) (UniProt Q00955). To be noted: read-out: fACC2 (in vitro ACC2 Inhibition Assay, IC50), ADP-Glo, 5 nM ACC2, 20 μM ATP, 20 μM acetyl-CoA.
Setting [1] is: Table 3a, ATCC 90028, 3 replicates, MIC recorded at 48 h, read-out: MIC, C. albicans ATCC 90028.
The mark [2] stands for this setting: Table 3b (additional results), ATCC 90028, 3 replicates, MIC recorded at 48 h, read-out: MIC, C. albicans ATCC 90028.
Where [3] appears, read: Table 3a, ATCC 6258, 3 replicates, MIC recorded at 48 h, read-out: MIC, C. krusei ATCC 6258.
Setting [4] is: Table 3b (additional results), ATCC 6258, 3 replicates, MIC recorded at 48 h, read-out: MIC, C. krusei ATCC 6258.
Where [5] appears, read: Table 3a, ATCC 22019, 3 replicates, MIC recorded at 48 h, read-out: MIC, C. parapsilosis ATCC 22019.
Setting [6] is: Table 3b (additional results), ATCC 22019, 3 replicates, MIC recorded at 48 h, read-out: MIC, C. parapsilosis ATCC 22019.

Sequence of human (hACC2) (O00763 whole entry): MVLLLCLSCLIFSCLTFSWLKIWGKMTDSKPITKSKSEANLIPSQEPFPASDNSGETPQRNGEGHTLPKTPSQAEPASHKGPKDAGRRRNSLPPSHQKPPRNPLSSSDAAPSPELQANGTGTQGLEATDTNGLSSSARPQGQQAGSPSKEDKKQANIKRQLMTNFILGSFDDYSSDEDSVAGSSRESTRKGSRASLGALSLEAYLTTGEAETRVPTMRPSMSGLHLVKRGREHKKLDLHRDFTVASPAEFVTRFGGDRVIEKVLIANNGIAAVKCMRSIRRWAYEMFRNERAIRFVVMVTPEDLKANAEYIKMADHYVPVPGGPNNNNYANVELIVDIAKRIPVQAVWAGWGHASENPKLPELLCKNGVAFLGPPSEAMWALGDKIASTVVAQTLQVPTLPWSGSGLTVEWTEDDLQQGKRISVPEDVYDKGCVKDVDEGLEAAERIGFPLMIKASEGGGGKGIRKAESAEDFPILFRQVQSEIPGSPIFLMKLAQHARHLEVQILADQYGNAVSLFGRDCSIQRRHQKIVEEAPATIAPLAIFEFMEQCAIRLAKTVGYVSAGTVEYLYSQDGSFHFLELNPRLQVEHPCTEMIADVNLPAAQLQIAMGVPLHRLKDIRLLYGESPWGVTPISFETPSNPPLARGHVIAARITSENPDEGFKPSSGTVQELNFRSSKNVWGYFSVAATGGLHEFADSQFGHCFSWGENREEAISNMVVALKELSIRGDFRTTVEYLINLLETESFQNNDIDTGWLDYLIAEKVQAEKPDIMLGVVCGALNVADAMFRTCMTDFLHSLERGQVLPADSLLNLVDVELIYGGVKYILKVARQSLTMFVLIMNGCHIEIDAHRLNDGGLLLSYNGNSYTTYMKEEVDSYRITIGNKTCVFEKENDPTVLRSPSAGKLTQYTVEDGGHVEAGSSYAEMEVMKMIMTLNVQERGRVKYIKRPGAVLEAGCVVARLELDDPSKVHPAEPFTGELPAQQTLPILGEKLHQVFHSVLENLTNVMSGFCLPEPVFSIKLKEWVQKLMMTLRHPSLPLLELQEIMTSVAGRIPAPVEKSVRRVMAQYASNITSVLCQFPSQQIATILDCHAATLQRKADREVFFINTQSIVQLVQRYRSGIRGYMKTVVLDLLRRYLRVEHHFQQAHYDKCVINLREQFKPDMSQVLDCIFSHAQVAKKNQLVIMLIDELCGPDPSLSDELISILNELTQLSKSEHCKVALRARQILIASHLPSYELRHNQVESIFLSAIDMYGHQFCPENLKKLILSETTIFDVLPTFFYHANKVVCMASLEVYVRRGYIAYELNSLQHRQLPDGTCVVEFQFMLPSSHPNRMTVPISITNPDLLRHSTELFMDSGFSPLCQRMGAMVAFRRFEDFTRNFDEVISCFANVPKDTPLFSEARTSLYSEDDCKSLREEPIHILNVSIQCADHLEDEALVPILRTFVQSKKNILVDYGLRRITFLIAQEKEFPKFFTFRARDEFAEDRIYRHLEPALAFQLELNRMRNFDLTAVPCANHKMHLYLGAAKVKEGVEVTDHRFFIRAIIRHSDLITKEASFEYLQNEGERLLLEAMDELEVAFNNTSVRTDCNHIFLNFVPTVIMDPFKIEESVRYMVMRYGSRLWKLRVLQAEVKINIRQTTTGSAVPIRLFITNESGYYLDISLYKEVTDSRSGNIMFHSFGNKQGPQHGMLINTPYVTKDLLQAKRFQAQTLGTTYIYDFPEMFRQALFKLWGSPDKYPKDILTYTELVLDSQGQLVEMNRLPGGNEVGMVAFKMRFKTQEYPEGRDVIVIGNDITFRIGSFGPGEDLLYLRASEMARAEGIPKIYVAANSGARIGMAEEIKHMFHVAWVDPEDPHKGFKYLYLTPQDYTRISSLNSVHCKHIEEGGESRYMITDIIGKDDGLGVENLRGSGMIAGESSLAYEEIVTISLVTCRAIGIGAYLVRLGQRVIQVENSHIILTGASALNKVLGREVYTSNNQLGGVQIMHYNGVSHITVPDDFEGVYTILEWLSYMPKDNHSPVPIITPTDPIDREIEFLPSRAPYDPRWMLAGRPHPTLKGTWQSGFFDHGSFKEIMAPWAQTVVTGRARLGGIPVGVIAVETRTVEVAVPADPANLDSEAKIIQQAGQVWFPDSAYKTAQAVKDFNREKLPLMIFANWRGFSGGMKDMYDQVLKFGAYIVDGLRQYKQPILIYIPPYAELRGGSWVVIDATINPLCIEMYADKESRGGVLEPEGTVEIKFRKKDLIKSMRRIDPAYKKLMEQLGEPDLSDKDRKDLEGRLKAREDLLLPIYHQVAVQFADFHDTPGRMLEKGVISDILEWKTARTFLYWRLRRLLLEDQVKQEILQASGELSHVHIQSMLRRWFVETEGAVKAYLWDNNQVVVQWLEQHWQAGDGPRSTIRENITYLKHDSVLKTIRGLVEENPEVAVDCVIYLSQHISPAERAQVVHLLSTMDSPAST
Sequence of fungal (fACC2) (Q00955 whole entry): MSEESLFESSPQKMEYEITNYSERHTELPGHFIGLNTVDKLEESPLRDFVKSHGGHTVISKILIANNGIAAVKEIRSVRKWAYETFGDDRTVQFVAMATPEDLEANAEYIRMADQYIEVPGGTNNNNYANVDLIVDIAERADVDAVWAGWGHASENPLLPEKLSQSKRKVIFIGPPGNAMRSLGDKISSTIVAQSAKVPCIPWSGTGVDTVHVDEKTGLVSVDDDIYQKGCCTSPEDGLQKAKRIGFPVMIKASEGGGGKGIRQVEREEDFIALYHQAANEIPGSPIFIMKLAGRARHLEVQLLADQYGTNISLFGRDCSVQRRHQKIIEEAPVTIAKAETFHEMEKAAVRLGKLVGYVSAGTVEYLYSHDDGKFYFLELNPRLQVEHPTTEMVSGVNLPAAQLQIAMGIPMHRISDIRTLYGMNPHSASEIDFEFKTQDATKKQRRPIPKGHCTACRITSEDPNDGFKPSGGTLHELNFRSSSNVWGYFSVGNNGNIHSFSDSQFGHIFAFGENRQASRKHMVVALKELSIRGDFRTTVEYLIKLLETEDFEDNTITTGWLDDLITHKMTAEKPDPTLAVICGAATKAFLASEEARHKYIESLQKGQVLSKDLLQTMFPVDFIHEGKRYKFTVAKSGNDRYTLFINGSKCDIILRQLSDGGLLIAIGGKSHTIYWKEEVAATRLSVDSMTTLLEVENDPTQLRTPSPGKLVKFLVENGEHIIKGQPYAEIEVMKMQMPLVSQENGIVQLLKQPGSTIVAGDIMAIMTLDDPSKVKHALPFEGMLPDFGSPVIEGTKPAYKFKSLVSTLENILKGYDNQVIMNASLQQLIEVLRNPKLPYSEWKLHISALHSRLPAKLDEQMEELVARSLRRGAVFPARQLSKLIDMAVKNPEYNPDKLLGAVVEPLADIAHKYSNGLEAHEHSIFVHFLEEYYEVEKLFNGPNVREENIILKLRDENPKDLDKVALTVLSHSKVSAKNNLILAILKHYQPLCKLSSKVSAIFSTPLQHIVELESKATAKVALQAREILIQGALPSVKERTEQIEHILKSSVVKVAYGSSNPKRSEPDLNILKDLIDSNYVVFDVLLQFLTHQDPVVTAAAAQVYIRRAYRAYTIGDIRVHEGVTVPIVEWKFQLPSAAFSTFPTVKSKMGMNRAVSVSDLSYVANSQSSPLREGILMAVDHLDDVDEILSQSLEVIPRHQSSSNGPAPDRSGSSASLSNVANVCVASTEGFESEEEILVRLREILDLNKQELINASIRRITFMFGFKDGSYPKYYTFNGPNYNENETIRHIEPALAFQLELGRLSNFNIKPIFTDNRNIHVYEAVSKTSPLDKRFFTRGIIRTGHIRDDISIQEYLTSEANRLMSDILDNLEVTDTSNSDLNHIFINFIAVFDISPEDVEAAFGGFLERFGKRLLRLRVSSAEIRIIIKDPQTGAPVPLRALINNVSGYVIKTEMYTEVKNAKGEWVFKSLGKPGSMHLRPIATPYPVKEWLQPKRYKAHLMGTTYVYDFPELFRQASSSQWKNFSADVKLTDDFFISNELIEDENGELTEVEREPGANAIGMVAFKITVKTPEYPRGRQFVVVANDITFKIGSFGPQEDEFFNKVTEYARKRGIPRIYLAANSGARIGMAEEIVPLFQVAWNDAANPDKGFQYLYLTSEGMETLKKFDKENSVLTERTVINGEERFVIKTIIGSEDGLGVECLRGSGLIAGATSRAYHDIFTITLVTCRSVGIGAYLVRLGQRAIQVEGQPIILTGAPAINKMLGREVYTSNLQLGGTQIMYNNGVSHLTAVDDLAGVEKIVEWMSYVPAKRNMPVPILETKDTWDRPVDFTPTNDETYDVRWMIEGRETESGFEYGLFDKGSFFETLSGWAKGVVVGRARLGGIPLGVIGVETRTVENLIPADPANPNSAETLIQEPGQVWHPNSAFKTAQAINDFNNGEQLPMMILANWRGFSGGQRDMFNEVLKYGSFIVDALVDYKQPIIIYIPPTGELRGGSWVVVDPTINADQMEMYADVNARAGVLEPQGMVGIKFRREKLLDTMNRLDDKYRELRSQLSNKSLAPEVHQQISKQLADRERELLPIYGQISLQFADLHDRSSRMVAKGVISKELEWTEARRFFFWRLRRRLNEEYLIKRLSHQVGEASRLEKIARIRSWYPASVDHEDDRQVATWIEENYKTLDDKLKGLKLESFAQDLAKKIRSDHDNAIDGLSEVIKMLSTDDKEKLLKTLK

In general, IC50 refers to the point on the concentration scale where inhibition reaches its midpoint. The term MIC denotes the lowest concentration that inhibits growth of the organism. For `COc1ccc(F)cc1[C@H](Cn1c(=O)n(C(C)(C)C(=O)NO)c(=O)c2c(C)c(-n3nccn3)sc21)OCCCO` [Compound I-161], the IC50 against human (hACC2) (Table 2a) lay within 1 to 5 nM; against human (hACC2) (Table 2b, additional results), 1 to 5 nM; on fungal (fACC2) (Table 2a), 0.4 to 1 nM; on fungal (fACC2) (Table 2b, additional results), 0.3 to 1 nM. The minimal inhibitory concentration (MIC) in the test with C. albicans (setting [1]) was in the range of 2.1 to 4 µg/mL (≈ 3.64 to 6.94 µM); with C. albicans (setting [2]), 2.01 to 4 µg/mL (≈ 3.49 to 6.94 µM); in the test with C. krusei (setting [3]), 2.1 to 4 µg/mL (≈ 3.64 to 6.94 µM); with C. krusei (setting [4]), 1.01 to 2 µg/mL (≈ 1.75 to 3.47 µM); with C. parapsilosis (setting [5]) it was 2.1 to 4 µg/mL (≈ 3.64 to 6.94 µM); in the test with C. parapsilosis (setting [6]), 2.01 to 4 µg/mL (≈ 3.49 to 6.94 µM).

In the case of `COc1ccc(F)cc1[C@H](Cn1c(=O)n(C(C)(C)C(=O)N(O)C(C)C)c(=O)c2c(C)c(-n3nccn3)sc21)OCCCO` [Compound I-163], the IC50 against human (hACC2) (Table 2a) is 5 to 10 nM; against human (hACC2) (Table 2b, additional results) it was 5 to 10 nM; on fungal (fACC2) (Table 2a) it was 1 to 5 nM; at fungal (fACC2) (Table 2b, additional results) it was 1 to 5 nM. For the same compound, the minimal inhibitory concentration (MIC) with C. albicans (setting [1]) fell in the range of 0.25 to 1 µg/mL (≈ 0.404 to 1.62 µM); in the test with C. albicans (setting [2]) it was 1.01 to 2 µg/mL (≈ 1.63 to 3.23 µM); in the test with C. krusei (setting [3]), 0.25 to 1 µg/mL (≈ 0.404 to 1.62 µM); in the test on C. krusei (setting [4]), 0.25 to 1 µg/mL (≈ 0.404 to 1.62 µM); in the test on C. parapsilosis (setting [5]), 0.25 to 1 µg/mL (≈ 0.404 to 1.62 µM); in the test with C. parapsilosis (setting [6]), 2.01 to 4 µg/mL (≈ 3.25 to 6.47 µM).

As to `COc1ccc(F)cc1[C@H](Cn1c(=O)n([C@H](C)C(=O)N(C)C(C)C)c(=O)c2c(C)c(-n3nccn3)sc21)OC1CCC(=O)CC1` [Compound I-164], the half-maximal inhibitory concentration (IC50) is 5 to 10 nM against human (hACC2) (Table 2a); 5 to 10 nM against human (hACC2) (Table 2b, additional results); 1 to 5 nM on fungal (fACC2) (Table 2a); 1 to 5 nM at fungal (fACC2) (Table 2b, additional results). The MIC in the test on C. albicans (setting [1]) is 0.25 to 1 µg/mL (≈ 0.39 to 1.56 µM); with C. albicans (setting [2]) it was 0.25 to 1 µg/mL (≈ 0.39 to 1.56 µM); in the test on C. krusei (setting [3]), 0.25 to 1 µg/mL (≈ 0.39 to 1.56 µM); in the test on C. krusei (setting [4]), 0.25 to 1 µg/mL (≈ 0.39 to 1.56 µM); with C. parapsilosis (setting [5]) it was 0.25 to 1 µg/mL (≈ 0.39 to 1.56 µM); in the test with C. parapsilosis (setting [6]), 1.01 to 2 µg/mL (≈ 1.58 to 3.12 µM).

In the case of `COc1ccc(F)cc1[C@H](Cn1c(=O)n([C@@H](C)C(=O)N(C)C(C)C)c(=O)c2c(C)c(-n3nccn3)sc21)OC1CCC(=O)CC1` [Compound I-165], the half-inhibitory concentration (IC50) at human (hACC2) (Table 2a) fell in the range of 5 to 10 nM; on human (hACC2) (Table 2b, additional results) it was 5 to 10 nM; on fungal (fACC2) (Table 2a), 1 to 5 nM; on fungal (fACC2) (Table 2b, additional results) it was 1 to 5 nM. The MIC in the test with C. albicans (setting [1]) was 0.25 to 1 µg/mL (≈ 0.39 to 1.56 µM); in the test on C. albicans (setting [2]), 0.25 to 1 µg/mL (≈ 0.39 to 1.56 µM); in the test on C. krusei (setting [3]) it was 0.25 to 1 µg/mL (≈ 0.39 to 1.56 µM); in the test on C. krusei (setting [4]), 0.25 to 1 µg/mL (≈ 0.39 to 1.56 µM); in the test on C. parapsilosis (setting [5]) it was 1.1 to 2 µg/mL (≈ 1.72 to 3.12 µM); with C. parapsilosis (setting [6]), 1.01 to 2 µg/mL (≈ 1.58 to 3.12 µM).

In the case of `COc1ccc(F)cc1[C@H](Cn1c(=O)n([C@H](C)C(=O)N(C)C(C)C)c(=O)c2c(C)c(-n3nccn3)sc21)O[C@H]1CC[C@@H](O)CC1` [Compound I-166], the IC50 on human (hACC2) (Table 2a) was in the range of 1 to 5 nM; against human (hACC2) (Table 2b, additional results), 1 to 5 nM; at fungal (fACC2) (Table 2a) it was 0.4 to 1 nM; at fungal (fACC2) (Table 2b, additional results), 0.3 to 1 nM. Besides, the minimum inhibitory concentration (MIC) with C. albicans (setting [1]) lay within 0.25 to 1 µg/mL (≈ 0.389 to 1.56 µM); in the test on C. albicans (setting [2]) it was 0.25 to 1 µg/mL (≈ 0.389 to 1.56 µM); in the test with C. krusei (setting [3]), 0.25 to 1 µg/mL (≈ 0.389 to 1.56 µM); with C. krusei (setting [4]), 1.01 to 2 µg/mL (≈ 1.57 to 3.11 µM); with C. parapsilosis (setting [5]) it was 0.25 to 1 µg/mL (≈ 0.389 to 1.56 µM); in the test on C. parapsilosis (setting [6]) it was 1.01 to 2 µg/mL (≈ 1.57 to 3.11 µM).

For the compound `COc1ccc(F)cc1[C@H](Cn1c(=O)n([C@@H](C)C(=O)N(C)C(C)C)c(=O)c2c(C)c(-n3nccn3)sc21)O[C@H]1CC[C@@H](O)CC1` [Compound I-167], the IC50 is 5 to 10 nM against human (hACC2) (Table 2a); 5 to 10 nM against human (hACC2) (Table 2b, additional results); 0.4 to 1 nM on fungal (fACC2) (Table 2a); 0.3 to 1 nM at fungal (fACC2) (Table 2b, additional results). The MIC in the test on C. albicans (setting [1]) fell in the range of 1.1 to 2 µg/mL (≈ 1.71 to 3.11 µM); in the test with C. albicans (setting [2]), 0.25 to 1 µg/mL (≈ 0.389 to 1.56 µM); in the test on C. krusei (setting [3]) it was 0.25 to 1 µg/mL (≈ 0.389 to 1.56 µM); with C. krusei (setting [4]) it was 1.01 to 2 µg/mL (≈ 1.57 to 3.11 µM); in the test on C. parapsilosis (setting [5]), 2.1 to 4 µg/mL (≈ 3.27 to 6.22 µM); in the test with C. parapsilosis (setting [6]), 1.01 to 2 µg/mL (≈ 1.57 to 3.11 µM).

Take `COc1ccc(F)cc1[C@H](Cn1c(=O)n(C(C)(C)C(=O)NC(C)C)c(=O)c2c(C)c(-n3nccn3)sc21)OCCC(C)(C)O` [Compound I-168]: the IC50 at human (hACC2) (Table 2a) lay in the range of 5 to 10 nM; against human (hACC2) (Table 2b, additional results), 5 to 10 nM; on fungal (fACC2) (Table 2a), 1 to 5 nM; on fungal (fACC2) (Table 2b, additional results) it was 1 to 5 nM. The MIC with C. albicans (read-out: MIC, C. albicans ATCC 90028, Table 3b (additional results), 3 replicates, MIC recorded at 48 h) is 0.25 to 1 µg/mL (≈ 0.396 to 1.59 µM); with C. krusei (read-out: MIC, C. krusei ATCC 6258, Table 3b (additional results), 3 replicates, MIC recorded at 48 h), 0.25 to 1 µg/mL (≈ 0.396 to 1.59 µM); with C. parapsilosis (read-out: MIC, C. parapsilosis ATCC 22019, Table 3b (additional results), 3 replicates, MIC recorded at 48 h) it was 0.25 to 1 µg/mL (≈ 0.396 to 1.59 µM).

As for `COc1ccc(F)cc1[C@H](Cn1c(=O)n([C@H](C)C(=O)N(C)C(C)C)c(=O)c2c(C)c(-n3nccn3)sc21)OCC(C)(C)O` [Compound I-169], the IC50 is more than 40 nM on human (hACC2) (Table 2a); more than 40 nM on human (hACC2) (Table 2b, additional results); 1 to 5 nM at fungal (fACC2) (Table 2a); 1 to 5 nM at fungal (fACC2) (Table 2b, additional results). The MIC was 0.25 to 1 µg/mL (≈ 0.405 to 1.62 µM) with C. albicans (setting [2]), more than 4.01 µg/mL in the test on C. krusei (setting [4]) and 2.01 to 4 µg/mL (≈ 3.26 to 6.49 µM) in the test on C. parapsilosis (setting [6]).
